Values quoted from earlier work as cited in patent US20120148652A1, “METHOD FOR INCORPORATING MEDICINE INTO A PLANT” (EARTH CHEMICAL CO., LTD., priority 2009, published 2012).

Settings: 20° C., reference value

SMILES	vapor pressure
CC1(C)[C@H](C=C(Cl)Cl)[C@H]1C(=O)OCc1c(F)c(F)cc(F)c1F [transfluthrin, Transfluthrin]	4.0×10^−6 hPa
CC(C)=CC1C(C(=O)OC(C#N)c2cccc(Oc3ccccc3)c2)C1(C)C (stereo not drawn) [d,d-T-cyphenothrin]	< 1.33×10^−7 hPa
